In PMC7926627, “Fine-Tuning the Biological Profile of Multitarget Mitochondriotropic Antioxidants for Neurodegenerative Diseases” (Antioxidants, 2021):

Assays:
[1] = Differential pulse voltammetry (DPV); format: physicochemical; conditions: pH 7.4, glassy carbon electrode; for Ep (redox potential): first anodic peak
Procedure: DPV experiments were performed as described in literature (see supplementary information).
1.4. Electrochemical measurements
Voltammetric studies were carried out using an Autolab PGSTAT 12 potentiostat/galvanostat (Metrohm-Autolab, Netherlands) and one compartment glass electrochemical cell. The voltammetric data were acquired at room temperature using a three-electrode system: a glassy carbon working electrode (GCE) (d = 2 mm), a platinum wire counter electrode and an Ag/AgCl saturated KCl reference electrode (Metrohm, Switzerland). The working electrode was polished manually with an aqueous slurry of alumina powder (BDH Chemicals, VWR, USA) on a microcloth pad and rinsed with water before use. A Crison pH-meter with glass electrode was used for the pH measurements (Crison, Barcelona, Spain).
Differential pulse voltammetry (DPV) experiments were performed as described elsewhere. Test solutions were prepared directly in the electrochemical cell, by diluting ethanolic solutions of the compounds under study (10 mM, 100 μL) in the supporting electrolyte (10 mL) to obtain a final concentration of 100 μM. The scan rate used in differential pulse voltammetry (DPV) was 5 mV.s−1.
All reagents used were of analytical grade or of the highest grade available. Neutral red (NR) solution, resazurin, Dulbecco’s Modified Eagle’s Medium (DMEM) with 4.5 g/L glucose, retinoic acid, 12-O-tetradecanoylphorbol-13-acetate (TPA), 2’,7’-dichorofluorescein diacetate (DCFH-DA), Rhodamine 123 (RHO 123) and zosuquidar (ZOS) were obtained from Sigma Aldrich. Reagents used in cell culture such as heat-inactivated fetal bovine serum (FBS), antibiotic (10,000 U/mL penicillin, 10,000 μg/mL streptomycin), MEM Non-Essential Amino Acids solution (100×) (MEM NEAA), Hanks’ balanced salt solution (HBSS) with or without calcium and magnesium (HBSS(+/+) or HBSS (-/-), respectively) and 0.25% trypsin/1 mM ethylenediamine tetraacetic acid (EDTA) were purchased from Gibco Laboratories (Lenexa, KS, USA). Dimethylsulfoxide (DMSO), absolute ethanol, sodium bicarbonate and acetic acid were obtained from Merck (Darmstadt, Germany). Triton™ X-100 detergent solution was acquired from Thermo Fisher Scientific (Waltham, MA, USA).
Human neuroblastoma SH-SY5Y cells were routinely cultured into […] and maintained in DMEM with 4.5 g/L glucose, supplemented with 10 % heat-inactivated FBS (v/v), 1 % MEM NEAA (v/v) and 1% penicillin/streptomycin (v/v). Cells were maintained at 37 °C in a humidified, 5% CO2−95% air atmosphere, and the cell culture medium was changed every 2-3

[2] = target: T1, eeAChE (electric eel acetylcholinesterase) (Electrophorus electricus, UniProt O42275); experiment: eeAChE inhibition, Ellman's method; format: biochemical
T1 construct: Eel acetylcholinesterase (eeAChE, E.C. 3.1.1.7, from Electrophorus electricus); purchased Sigma Aldrich
T1 sequence (O42275 24-633): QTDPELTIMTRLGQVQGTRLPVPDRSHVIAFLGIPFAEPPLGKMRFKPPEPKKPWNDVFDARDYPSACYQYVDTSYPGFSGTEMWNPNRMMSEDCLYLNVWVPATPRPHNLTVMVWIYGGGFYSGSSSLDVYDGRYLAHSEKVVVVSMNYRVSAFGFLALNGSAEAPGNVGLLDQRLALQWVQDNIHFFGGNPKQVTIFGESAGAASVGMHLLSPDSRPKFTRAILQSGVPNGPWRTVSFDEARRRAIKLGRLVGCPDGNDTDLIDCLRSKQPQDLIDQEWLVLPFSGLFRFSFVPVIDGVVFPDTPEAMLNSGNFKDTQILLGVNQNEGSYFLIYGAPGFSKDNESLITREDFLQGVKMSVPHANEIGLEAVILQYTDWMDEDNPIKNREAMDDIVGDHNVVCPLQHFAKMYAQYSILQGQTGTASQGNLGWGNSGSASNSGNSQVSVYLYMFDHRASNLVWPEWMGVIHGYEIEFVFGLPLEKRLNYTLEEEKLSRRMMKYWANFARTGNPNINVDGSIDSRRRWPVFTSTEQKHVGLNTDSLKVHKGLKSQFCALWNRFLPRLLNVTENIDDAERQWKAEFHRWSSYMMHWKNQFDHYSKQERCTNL
Procedure: The eeAChE and eqBChE inhibitory activities of the compounds under study were determined following the Ellman’s method [32, 33]
Substrate solutions (ATCI or BCTI) were prepared in deionized water (conductivity ˂ 0.1 µS.cm-
Evaluation of eel acetylcholinesterase and equine butyrylcholinesterase inhibitory
The eeAChE and eqBChE inhibitory activities of the compounds under study were evaluated following the Ellman’s method [1, 2]. Briefly, a mixture containing sodium phosphate buffer, enzyme (final concentration: eeAChE 0.05 U/mL and eeBChE 0.05 U/mL), DTNB (final concentration: 400 µM) and the test compounds/reference inhibitors were preincubated for 5 minutes at 30 °C in a 96-well microplate (BRANDplates, pureGradeTM, BRAND GMBH, Wertheim, Germany). In control experiments, sodium phosphate buffer was used instead of the
ºC in a microplate reader (BioTek Synergy HT from BioTek Instruments, Winooski, VT, USA).
The rates of the substrate enzymatic hydrolysis were determined, normalized and plotted against the respective inhibitor concentration. IC50 values were obtained from the dose-response curves
and were expressed as mean ± standard deviation. IC50 values were determined in at least three
independent experiments, each performed at least in triplicates.

[3] = test system: differentiated SH-SY5Y cells; experiment: Neutral red (NR) uptake assay (cytotoxicity); format: cell-based, human; conditions: 24 h; for effect on NR uptake: increasing concentrations up to 100 µM
Procedure: To avoid phenotypic changes, the cells used for all experiments were taken between 19th and 28th passages. Cells were differentiated as described previously by Fernandes et al. [6]. Briefly, SH-SY5Y cells were seeded onto 96-well plates at a density of 25,000 cells/cm2 in cell culture medium with trans-retinoic acid (RA) (final concentration of 10 µM) and incubated for 3 days at
The neutral red (NR) uptake assay is based on the ability of viable cells to incorporate the supravital dye NR and retain it inside the lysosomes [11]. NR uptake assay was performed as previously described by Fernandes et al. [12] Briefly, after the 24 h incubation periods with the test compounds, the cell culture medium was removed and NR solution (50 mg/mL) in fresh cell culture medium was added. Differentiated SH-SY5Y cells and Caco-2 cells were incubated for 2
multiwell microplate reader (PowerWave XS from BioTek Instruments). The results were
expressed as the percentage of NR uptake relative to that of the control (non-treated) cells [NR
uptake (% of control)] ± standard error mean (SEM) of at least three independent experiments.
Stock solutions of the test compounds (10 µM) were prepared in DMSO and diluted in

[4] = test system: differentiated SH-SY5Y cells; experiment: Resazurin reduction assay (cytotoxicity); format: cell-based, human; conditions: 24 h
Procedure: For cytotoxicity studies, differentiated SH-SY5Y cells were incubated with increasing concentrations of the test compounds (0.20–100 µM) for 24 h. Controls were treated with culture media containing 0.1% DMSO. Cell viability was estimated using two different methods: resazurin reduction assay and NR uptake assay. […]
days. The cultures were passaged once a week by trypsinization (0.25 % trypsin/1 mM EDTA).
To avoid phenotypic changes, the cells used for all experiments were taken between 19th and 28th passages. Cells were differentiated as described previously by Fernandes et al.. Briefly, SH-SY5Y cells were seeded onto 96-well plates at a density of 25,000 cells/cm2 in cell culture medium with trans-retinoic acid (RA) (final concentration of 10 µM) and incubated for 3 days at 37 °C in a humidified, 5% CO2−95% air atmosphere. The cell culture medium was then removed and replaced with medium supplemented with 12-O-tetradecanoylphorbol-13-acetate (TPA) (final concentration 80 nM), and cells were incubated for 3 days. Stock solutions of RA (10 mM) and TPA (80 µM) were prepared in DMSO.
1.5.3. Cytotoxicity assays
1.5.3.1. Resazurin reduction assay
Resazurin is a non-fluorescent, non-toxic water-soluble dye able to permeate through cell […]
highly fluorescent resorufin [8, 9]. Since the conversion of resazurin into resorufin occurs mostly in mitochondria, the amount of resorufin produced can be used as indicator of metabolic activity. The quantity of resorufin production is proportional to the number of viable cells in culture and can be quantified fluorometrically or colorimetrically.
Resazurin reduction assay was performed as previously described by Fernandes et al..
Briefly, after the 24 h incubation periods with the test compounds, the cell culture medium was removed and replaced with fresh culture medium with resazurin (10 μg/mL) prepared in cell culture medium. Differentiated SH-SY5Y cells were incubated for 2 h at 37 °C in a humidified 5% CO2−95% air atmosphere. Then, the fluorescence was read in a multiwell microplate reader (PowerWave XS from BioTek Instruments, Vermont, US), using an excitation wavelength of 540 nm and an emission wavelength of 590 nm. The results were expressed as the percentage of resazurin reduction relative to that of the control (non-treated) cells [resazurin reduction (% of […]
1.5.3.2. Neutral red uptake assay
The neutral red (NR) uptake assay is based on the ability of viable cells to incorporate the supravital dye NR and retain it inside the lysosomes. NR uptake assay was performed as previously described by Fernandes et al. Briefly, after the 24 h incubation periods with the test compounds, the cell culture medium was removed and NR solution ([…]) in fresh cell culture medium was added. Differentiated SH-SY5Y cells and Caco-2 cells were incubated for 2 h and 1 h, respectively, at 37 °C in a humidified, 5% CO2−95% air atmosphere. Then, the cell culture medium was removed and replaced by ethanol absolute/distilled water (1:1) with 5 % acetic acid to liberate the dye from the viable cells. The absorbance was measured at 540 nm in a […]

[5] = at concentrations above 12.5 µM

O=C(/C=C/C=C/c1ccc(O)c(O)c1)NCCCC[P+](c1ccccc1)(c1ccccc1)c1ccccc1.[Br-] [Compound 4, (4-((2E,4E)-5-(3,4-Dihydroxyphenyl)penta-2,4-dienamido)butyl)triphenylphosphonium bromide]
Ep (redox potential) [1]: 125 mV
IC50 [2]: 2.23 ± 0.12 µM
effect on NR uptake [3]: remained constant
effect on resazurin reduction ([4]; concentrations up to 100 µM): did not markedly affect

O=C(/C=C/C=C/c1ccc2c(c1)OCO2)NCCCCCC[P+](c1ccccc1)(c1ccccc1)c1ccccc1.[Br-] [Compound 3, (6-((2E,4E)-5-(Benzo[d][1,3]dioxol-5-yl)penta-2,4-dienamido)hexyl)triphenylphosphonium bromide]
Ep (redox potential), second overlapped anodic peak [1]: 1083 mV
Ep (redox potential) [1]: 931 mV
IC50 [2]: 5.74 ± 0.32 µM
lysosomal toxicity (NR uptake) [3, 5]: significant lysosomal toxicity
resorufin fluorescence (% of control) [4, 5]: < 85%

O=C(/C=C/C=C/c1ccc2c(c1)OCO2)NCCCC[P+](c1ccccc1)(c1ccccc1)c1ccccc1.[Br-] [Compound 2, (4-((2E,4E)-5-(Benzo[d][1,3]dioxol-5-yl)penta-2,4-dienamido)butyl)triphenylphosphonium bromide]
Ep (redox potential), second overlapped anodic peak [1]: 1070 mV
Ep (redox potential) [1]: 942 mV
IC50 [2]: 6.39 ± 0.28 µM
effect on NR uptake [3]: remained constant
concentrations in which the resazurin reduction was significantly decreased [4]: ≥ 50 µM
resorufin fluorescence (% of control) ([4]; at concentrations above 25 µM): < 85%

O=C(/C=C/C=C/c1ccc(O)c(O)c1)NCCCCCC[P+](c1ccccc1)(c1ccccc1)c1ccccc1.[Br-] [Compound 5, (6-((2E,4E)-5-(3,4-Dihydroxyphenyl)penta-2,4-dienamido)hexyl)triphenylphosphonium bromide]
Ep (redox potential) [1]: 144 mV
IC50 [2]: 2.14 ± 0.06 µM
effect on NR uptake [3]: remained constant
concentrations in which the resazurin reduction was significantly decreased [4]: ≥ 50 µM
resorufin fluorescence (% of control) ([4]; at concentrations above 25 µM): < 85%
